Experimental data from patent US7470684B2, “Spiropiperidine derivatives as NK3 antagonists” (Hoffmann-La Roche Inc., priority 2007, dated 2008).

These compounds were tested against T1, human NK3 receptor (Homo sapiens, UniProt P29371) (assay: [3H]SR142801 competition binding assay). Details: not given.
T1 construct: expressed in transfected cells; host or cells: HEK293 cells, transiently transfected; membranes
T1 sequence (P29371 1-465): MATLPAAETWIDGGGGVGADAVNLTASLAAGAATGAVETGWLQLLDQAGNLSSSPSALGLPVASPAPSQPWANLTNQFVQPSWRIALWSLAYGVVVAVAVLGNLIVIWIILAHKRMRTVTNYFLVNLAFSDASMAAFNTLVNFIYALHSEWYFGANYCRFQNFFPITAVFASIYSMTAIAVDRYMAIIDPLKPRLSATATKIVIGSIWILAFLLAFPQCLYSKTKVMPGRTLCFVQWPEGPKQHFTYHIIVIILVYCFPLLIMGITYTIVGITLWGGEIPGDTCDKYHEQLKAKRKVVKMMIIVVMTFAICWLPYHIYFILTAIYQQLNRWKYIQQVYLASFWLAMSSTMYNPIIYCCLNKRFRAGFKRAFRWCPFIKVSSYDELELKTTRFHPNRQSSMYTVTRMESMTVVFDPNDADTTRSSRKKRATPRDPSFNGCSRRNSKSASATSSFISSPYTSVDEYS
Protocol: [^3H]SR142801 Competition Binding Assay
hNK3 receptor binding experiment were performed using [^3H]SR142801 (Catalog No. TRK1035, specific activity: 74.0 Ci/mmol, Amersham, GE Healthcare UK limited, Buckinghamshire, UK) and membrane isolated from HEK293 cells transiently expressing recombinant human NK3 receptor. After thawing, the membrane homogenates were centrifuged at 48,000×g for 10 min at 4° C., the pellets were resuspended in the 50 mM Tris-HCl, 4 mM MnCl2, 1 μM phosphoramidon, 0.1% BSA binding buffer at pH 7.4 to a final assay concentration of 5 μg protein/well. For inhibition experiments, membranes were incubated with [^3H]SR142801 at a concentration equal to KD value of radioligand and 10 concentrations of the inhibitory compound (0.0003-10 μM) (in a total reaction volume of 500 μl) for 75 min at room temperature (RT). At the end of the incubation, membranes were filtered onto unitfilter (96-well white microplate with bonded GF/C filter preincubated 1 h in 0.3% PEI+0.3% BSA, Packard BioScience, Meriden, Conn.) with a Filtermate 196 harvester (Packard BioScience) and washed 4 times with ice-cold 50 mM Tris-HCl, pH 7.4 buffer. Nonspecific binding was measured in the presence of 10 μM SB222200 for both radioligands. The radioactivity on the filter was counted (5 min) on a Packard Top-count microplate scintillation counter with quenching correction after addition of 45 μl of microscint 40 (Canberra Packard S.A., Zürich, Switzerland) and shaking for 1 h. Inhibition curves were fitted according to the Hill equation: y=100/(1+(x/IC50)^nH), where nH=slope factor using Excel-fit 4 software (Microsoft). IC50 values were derived from the inhibition curve and the affinity constant (Ki) values were calculated using the Cheng-Prussoff equation Ki=IC50/(1+[L]/KD) where [L] is the concentration of radioligand and KD is its dissociation constant at the receptor, derived from the saturation isotherm. All experiments were performed in duplicate and the mean±standard error (SEM) of the individual Ki values was calculated.

Row | Structure (SMILES) | Ki [nM]
1 | CN1C(=O)OC2(CCN(CCC(C(=O)NC(c3ccc(Cl)cc3)c3nccn3C)c3ccc(Cl)c(Cl)c3)CC2)c2cc(F)ccc21 (stereo not drawn) [Example 88, N-[(4-chlorophenyl)(1-methyl-1H-imidazol-2-yl)methyl]-2-(3,4-dichlorophenyl)-4-(6-fluoro-1-methyl-2-oxo-1,2-dihydro-1′H-spiro[3,1-benzoxazine-4,4′-piperidin]-1′-yl)butanamide] | 72.2

Same assay, conditions: [3H]SR142801 displacement, membranes of HEK293 cells transiently expressing recombinant human NK3 receptor; read-out: hNK3 Ki

Row | Structure (SMILES) | Ki [nM]
2 | CN(CCc1ccccc1)C(=O)C(CCN1CCC2(CC1)OC(=O)Nc1ccc(F)cc12)c1ccc(Cl)c(Cl)c1 (stereo not drawn) [Example 65, 2-(3,4-dichlorophenyl)-4-(6-fluoro-2-oxo-1,2-dihydro-1′H-spiro[3,1-benzoxazine-4,4′-piperidin]-1′-yl)-N-methyl-N-(2-phenylethyl)butanamide] | 70.7
3 | CN(Cc1ccc(N2CCOCC2)cc1)C(=O)C(CCN1CCC2(CC1)OC(=O)Nc1ccc(F)cc12)c1ccc(Cl)c(Cl)c1 (stereo not drawn) [Example 70, 2-(3,4-dichlorophenyl)-4-(6-fluoro-2-oxo-1,2-dihydro-1′H-spiro[3,1-benzoxazine-4,4′-piperidin]-1′-yl)-N-methyl-N-(4-morpholin-4-ylbenzyl)butanamide] | 98
4 | CN(Cc1ccc(-c2ccncc2)cc1)C(=O)C(CCN1CCC2(CC1)OC(=O)Nc1ccc(F)cc12)c1ccc(Cl)c(Cl)c1 (stereo not drawn) [Example 72, 2-(3,4-dichlorophenyl)-4-(6-fluoro-2-oxo-1,2-dihydro-1′H-spiro[3,1-benzoxazine-4,4′-piperidin]-1′-yl)-N-methyl-N-(4-pyridin-4-ylbenzyl)butanamide] | 18.7

Same assay, conditions: hNK3 Ki, [3H]SR142801 displacement, membranes of HEK293 cells transiently expressing recombinant human NK3 receptor

Row | Structure (SMILES) | Ki [nM]
5 | O=C1Nc2ccc(F)cc2C2(CCN(CCC(C(=O)NCc3ccccc3OC(F)(F)F)c3ccc(Cl)c(Cl)c3)CC2)O1 (stereo not drawn) [Example 66, 2-(3,4-dichlorophenyl)-4-(6-fluoro-2-oxo-1,2-dihydro-1′H-spiro[3,1-benzoxazine-4,4′-piperidin]-1′-yl)-N-[2-(trifluoromethoxy)benzyl]butanamide] | 28.8
6 | O=C1Nc2ccc(F)cc2C2(CCN(CCC(C(=O)NCc3cccc(OC(F)F)c3)c3ccc(Cl)c(Cl)c3)CC2)O1 (stereo not drawn) [Example 67, 2-(3,4-dichlorophenyl)-N-[3-(difluoromethoxy)benzyl]4-(6-fluoro-2-oxo-1,2-dihydro-1′H-spiro[3,1-benzoxazine-4,4′-piperidin]-1′-yl)butanamide] | 19
7 | CN(Cc1ccc(C(F)(F)F)cc1)C(=O)C(CCN1CCC2(CC1)OC(=O)Nc1ccc(F)cc12)c1ccc(Cl)c(Cl)c1 (stereo not drawn) [Example 68, 2-(3,4-dichlorophenyl)-4-(6-fluoro-2-oxo-1,2-dihydro-1′H-spiro[3,1-benzoxazine-4,4′-piperidin]-1′-yl)-N-methyl-N-[4-(trifluoromethyl)benzyl]butanamide] | 1.4
8 | COc1ccc(CN(C)C(=O)C(CCN2CCC3(CC2)OC(=O)Nc2ccc(F)cc23)c2ccc(Cl)c(Cl)c2)cc1F (stereo not drawn) [Example 74, 2-(3,4-dichlorophenyl)-N-(3-fluoro-4-methoxybenzyl)-4-(6-fluoro-2-oxo-1,2-dihydro-1′H-spiro[3,1-benzoxazine-4,4′-piperidin]-1′-yl)-N-methylbutanamide] | 5.5
9 | COc1cc(CN(C)C(=O)C(CCN2CCC3(CC2)OC(=O)Nc2ccc(F)cc23)c2ccc(Cl)c(Cl)c2)ccc1OC(F)F (stereo not drawn) [Example 75, 2-(3,4-dichlorophenyl)-N-[4(difluoromethoxy)-3-methoxybenzyl]4-(6-fluoro-2-oxo-1,2-dihydro-1′H-spiro[3,1-benzoxazine-4,4′-piperidin]-1′-yl)-N-methylbutanamide] | 7.7
10 | CN(Cc1cccc(F)c1)C(=O)C(CCN1CCC2(CC1)OC(=O)Nc1ccc(F)cc12)c1ccc(Cl)c(Cl)c1 (stereo not drawn) [Example 76, 2-(3,4-dichlorophenyl)-N-(3-fluorobenzyl)-4-(6-fluoro-2-oxo-1,2-dihydro-1′H-spiro[3,1-benzoxazine-4,4′-piperidin]-1′-yl)-N-methylbutanamide] | 4.6
11 | Cc1ccc(CN(C)C(=O)C(CCN2CCC3(CC2)OC(=O)Nc2ccc(F)cc23)c2ccc(Cl)c(Cl)c2)cc1 (stereo not drawn) [Example 77, 2-(3,4-dichlorophenyl)-4-(6-fluoro-2-oxo-1,2-dihydro-1′H-spiro[3,1-benzoxazine-4,4′-piperidin]-1′-yl)-N-methyl-N-(4-methylbenzyl)butanamide] | 4.6
12 | O=C1Nc2ccc(F)cc2C2(CCN(CCC(C(=O)NCc3cccc(OC(F)(F)F)c3)c3ccc(Cl)c(Cl)c3)CC2)O1 (stereo not drawn) [Example 78, 2-(3,4-dichlorophenyl)-4-(6-fluoro-2-oxo-1,2-dihydro-1′H-spiro[3,1-benzoxazine-4,4′-piperidin]-1′-yl)-N-[(3-trifluoromethoxy)benzyl]butanamide] | 15.4
13 | CN(Cc1cccc(C(F)(F)F)c1)C(=O)C(CCN1CCC2(CC1)OC(=O)Nc1ccc(F)cc12)c1ccc(Cl)c(Cl)c1 (stereo not drawn) [Example 79, 2-(3,4-dichlorophenyl)-4-(6-fluoro-2-oxo-1,2-dihydro-1′H-spiro[3,1-benzoxazine-4,4′-piperidin]-1′-yl)-N-methyl-N-[3-(trifluoromethyl)benzyl]butanamide] | 6.6
14 | CN(Cc1ccc(F)cc1)C(=O)C(CCN1CCC2(CC1)OC(=O)Nc1ccc(F)cc12)c1ccc(Cl)c(Cl)c1 (stereo not drawn) [Example 80, 2-(3,4-dichlorophenyl)-N-(4-fluorobenzyl)-4-(6-fluoro-2-oxo-1,2-dihydro-1′H-spiro[3,1-benzoxazine-4,4′-piperidin]-1′-yl)-N-methylbutanamide] | 4.4
15 | O=C1Nc2ccc(F)cc2C2(CCN(CCC(C(=O)NCc3ccc(F)cc3)c3ccc(Cl)c(Cl)c3)CC2)O1 (stereo not drawn) [Example 81, 2-(3,4-dichlorophenyl)-N-(4-fluorobenzyl)-4-(6-fluoro-2-oxo-1,2-dihydro-1′H-spiro[3,1-benzoxazine-4,4′-piperidin]-1′-yl)-butanamide] | 11.6
16 | COc1ccc(CNC(=O)C(CCN2CCC3(CC2)OC(=O)Nc2ccc(F)cc23)c2ccc(Cl)c(Cl)c2)cc1 (stereo not drawn) [Example 82, 2-(3,4-dichlorophenyl)-4-(6-fluoro-2-oxo-1,2-dihydro-1′H-spiro[3,1-benzoxazine-4,4′-piperidin]-1′-yl)-N-(4-methoxybenzyl)butanamide] | 19.7
17 | O=C1Nc2ccc(F)cc2C2(CCN(CCC(C(=O)NCc3cccc(C(F)(F)F)c3)c3ccc(Cl)c(Cl)c3)CC2)O1 (stereo not drawn) [Example 83, 2-(3,4-dichlorophenyl)-4-(6-fluoro-2-oxo-1,2-dihydro-1′H-spiro[3,1-benzoxazine-4,4′-piperidin]-1′-yl)-N-[3-(trifluoromethyl)benzyl]butanamide] | 12.9
18 | O=C1Nc2ccc(F)cc2C2(CCN(CCC(C(=O)NCc3ccc(-c4csnn4)cc3)c3ccc(Cl)c(Cl)c3)CC2)O1 (stereo not drawn) [Example 84, 2-(3,4-dichlorophenyl)-4-(6-fluoro-2-oxo-1,2-dihydro-1′H-spiro[3,1-benzoxazine-4,4′-piperidin]-1′-yl)-N-[4-(1,2,3-thiadiazol-4-yl)benzyl]butanamide] | 11.6
19 | O=C1Nc2ccc(F)cc2C2(CCN(CCC(C(=O)NCc3ccc(OC(F)(F)F)cc3)c3ccc(Cl)c(Cl)c3)CC2)O1 (stereo not drawn) [Example 85, 2-(3,4-dichlorophenyl)-4-(6-fluoro-2-oxo-1,2-dihydro-1′H-spiro[3,1-benzoxazine-4,4′-piperidin]-1′-yl)-N-[4-(trifluoromethoxy)benzyl]butanamide] | 69.9
20 | N#Cc1ccc(CNC(=O)C(CCN2CCC3(CC2)OC(=O)Nc2ccc(F)cc23)c2ccc(Cl)c(Cl)c2)cc1 (stereo not drawn) [Example 86, N-(4-cyanobenzyl)-2-(3,4-dichlorophenyl)-4-(6-fluoro-2-oxo-1,2-dihydro-1′H-spiro[3,1-benzoxazine-4,4′-piperidin]-1′-yl)butanamide] | 12.1
21 | CN1C(=O)OC2(CCN(CCC(C(=O)NCc3ccc(Cl)cc3Cl)c3ccc(Cl)c(Cl)c3)CC2)c2cc(F)ccc21 (stereo not drawn) [Example 87, N-(2,4-dichlorobenzyl)-2-(3,4-dichlorophenyl)-4-(6-fluoro-1-methyl-2-oxo-1,2-dihydro-1′H-spiro[3,1-benzoxazine-4,4′-piperidin]-1′-yl)butanamide] | 2.1
